Values of other authors in US20050032747A1, “COX-2 and FAAH inhibitors” (priority 2003, published 2005).

Test system: prostaglandin synthesis
Conditions: reported by Shen et al. 1977

## Cc1c(CC(=O)O)c2cc(O)ccc2n1C(=O)c1ccc(Cl)cc1 [desmethylindomethacin, O-desmethylindomethacin]
  ability to inhibit prostaglandin synthesis: some ability to inhibit prostaglandin synthesis
